Key:
[1] = target: T1, human sodium glucose cotransporter 2 (Homo sapiens, UniProt P31639); experiment: SGLT-2 assay: 14C-AMG uptake in CHO-hSGLT2 or HEK293-hSGLT2 cells; assay type: cell-based; details: n = 1-4, hSGLT2-transfected cells, read-out: SGLT2 IC50 nM (n = 1-4)
T1 construct: expressed in transfected cells; host or cells: CHO-K1 (ATCC CCL-61) or HEK293 (ATCC CRL-1573), stably transfected with pZeoSV expression vector
T1 sequence (P31639 1-672): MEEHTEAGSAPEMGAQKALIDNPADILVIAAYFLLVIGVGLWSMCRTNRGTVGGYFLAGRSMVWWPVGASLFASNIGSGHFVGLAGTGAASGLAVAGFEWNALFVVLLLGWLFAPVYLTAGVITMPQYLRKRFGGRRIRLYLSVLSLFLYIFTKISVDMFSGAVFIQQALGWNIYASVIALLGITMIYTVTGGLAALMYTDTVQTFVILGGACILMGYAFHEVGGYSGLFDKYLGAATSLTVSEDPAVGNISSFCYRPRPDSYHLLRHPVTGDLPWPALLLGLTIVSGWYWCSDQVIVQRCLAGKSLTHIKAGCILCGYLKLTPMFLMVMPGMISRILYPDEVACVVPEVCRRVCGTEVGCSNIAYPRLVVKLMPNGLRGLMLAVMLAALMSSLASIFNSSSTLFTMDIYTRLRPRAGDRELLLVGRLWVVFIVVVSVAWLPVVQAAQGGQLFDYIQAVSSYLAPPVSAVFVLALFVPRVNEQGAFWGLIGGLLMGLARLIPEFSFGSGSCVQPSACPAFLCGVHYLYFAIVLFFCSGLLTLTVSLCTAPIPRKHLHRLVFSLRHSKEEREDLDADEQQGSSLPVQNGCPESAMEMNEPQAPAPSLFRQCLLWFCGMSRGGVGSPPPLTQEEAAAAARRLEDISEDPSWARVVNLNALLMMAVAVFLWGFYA
Description: These cell lines transport 14 C-labelled alpha-methyl-glucopyranoside (14 C-AMG, Amersham) into the interior of the cell in sodium-dependent manner.
The SGLT-2 assay is carried out as follows: CHO-hSGLT2 cells are cultivated in Ham's F12 Medium (BioWhittaker) with 10% foetal calf serum and 250 μg/mL zeocin (Invitrogen), and HEK293-hSGLT2 cells are cultivated in DMEM medium with 10% foetal calf serum and 250 μg/mL zeocin (Invitrogen). The cells are detached from the culture flasks by washing twice with PBS and subsequently treating with trypsin/EDTA. After the addition of cell culture medium the cells are centrifuged, resuspended in culture medium and counted in a Casy cell counter. Then 40,000 cells per well are seeded into a white, 96-well plate coated with poly-D-Iysine and incubated overnight at 37° C., 5% CO2. The cells are washenwice with 250 μl of assay buffer (Hanks Balanced Salt Solution, 137 mM NaCl, 5.4 mM KCl, 2.8 mM CaCl2, 1.2 mM MgSO4 and 10 mM HEPES (pH 7.4), 50 μg/mL of gentamycin). 250 μl of assay buffer and 5 μl of test compound are then added to each well and the plate is incubated for a further 15 minutes in the incubator. 5 μl of 10% DMSO are used as the negative control. The reaction is started by adding 5 μl of 14 C-AMG (0.05 μCi) to each well. After 2 hours' incubation at 37° C., 5% CO2, the cells are washed again with 250 μl of PBS (200C) and then lysed by the addition of 25 μl of 0.1 N NaOH (5 min. at 37° C.). 200 μl of MicroScint20 (Packard) are added to each well and incubation is continued for a further 20 min at 37° C. After this incubation the radioactivity of the 14 C-AMG absorbed is measured in a Topcount (Packard) using a 14 C scintillation program.

human SGLT1 = target: T2, human SGLT1 (Homo sapiens, UniProt P13866); experiment: hSGLT1 assay: analogous [14C]-AMG uptake in CHO-K1 or HEK293 cells expressing hSGLT1; assay type: cell-based; details: n = 1-4, hSGLT1-transfected cells
T2 construct: expressed in transfected cells; host or cells: CHO-K1 or HEK293 cells
T2 sequence (P13866 1-664): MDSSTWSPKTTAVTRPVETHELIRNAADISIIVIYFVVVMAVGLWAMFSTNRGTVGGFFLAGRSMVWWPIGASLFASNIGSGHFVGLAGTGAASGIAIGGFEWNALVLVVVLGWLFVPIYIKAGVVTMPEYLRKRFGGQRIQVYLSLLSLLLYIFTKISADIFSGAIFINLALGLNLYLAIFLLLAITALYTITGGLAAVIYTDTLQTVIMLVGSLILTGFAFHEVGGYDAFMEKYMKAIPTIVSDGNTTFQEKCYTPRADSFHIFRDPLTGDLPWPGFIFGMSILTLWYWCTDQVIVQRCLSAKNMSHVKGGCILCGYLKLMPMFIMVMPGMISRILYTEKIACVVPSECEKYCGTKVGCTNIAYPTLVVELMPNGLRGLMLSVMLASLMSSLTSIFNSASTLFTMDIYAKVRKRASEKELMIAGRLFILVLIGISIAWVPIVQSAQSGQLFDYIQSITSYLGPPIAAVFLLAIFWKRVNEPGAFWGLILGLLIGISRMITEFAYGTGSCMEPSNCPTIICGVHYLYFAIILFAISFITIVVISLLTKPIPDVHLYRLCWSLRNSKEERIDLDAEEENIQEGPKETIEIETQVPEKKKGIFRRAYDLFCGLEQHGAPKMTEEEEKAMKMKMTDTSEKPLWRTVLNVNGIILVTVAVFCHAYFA
Description: To determine human SGLT1 inhibitory activity, an analogous test was set up in which the cDNA for hSGLTI (Genbank Ace. No. NM000343) instead of hSGLT2 cDNA is expressed in CHO-K1 or HEK293 cells. The uptake assay buffer in the case of the hSGLT1 assay contains 10 mM HEPES, 5 mM Tris, 140 mM NaCl, 2 mM KCl, 1 mM CaCl2, and 1 mM MgCl2, pH 7.4 containing 0.5 mM of α-methyl-D-glucopyranoside (AMG), 10 μM of [^14C]-α-methyl-D-glucopyranoside and different inhibitor concentrations.

Compound	IC50 [1] [nM]	IC50 (human SGLT1) [nM]
CCOc1ccc(Cc2cc([C@@H]3O[C@H](CSc4ncccn4)[C@@H](O)[C@H](O)[C@H]3O)ccc2Cl)cc1 [Example 8, (2S,3R,4R,5S,6S)-2-[4-Chloro-3-(4-ethoxy-benzyl)-phenyl]-6-(pyrimidin-2-ylsulfanylmethyl)-tetrahydro-pyran-3,4,5-triol]	85	
CCOc1ccc(Cc2cc([C@@H]3O[C@H](CSc4nnnn4C)[C@@H](O)[C@H](O)[C@H]3O)ccc2Cl)cc1 [Example 10, (2S,3R,4R,5S,6S)-2-[4-Chloro-3-(4-ethoxy-benzyl)-phenyl]-6-(1-methyl-1H-tetrazol-5-ylsulfanylmethyl)-tetrahydro-pyran-3,4,5-triol]	20	< 1000
CCOc1ccc(Cc2cc([C@@H]3O[C@H](CSc4cccs4)[C@@H](O)[C@H](O)[C@H]3O)ccc2Cl)cc1 [Example 11, (2S,3R,4R,5S,6S)-2-[4-Chloro-3-(4-ethoxy-benzyl)-phenyl]-6-(thiophen-2-ylsulfanylmethyl)-tetrahydro-pyran-3,4,5-triol]	60	< 1000
CCOc1ccc(Cc2cc([C@@H]3O[C@H](CSc4nc5ccccc5[nH]4)[C@@H](O)[C@H](O)[C@H]3O)ccc2Cl)cc1 [Example 15, (2S,3S,4R,5R,6S)-2-(1H-Benzoimidazol-2-ylsulfanylmethyl)-6-[4-chloro-3-(4-ethoxy-benzyl)-phenyl]-tetrahydro-pyran-3,4,5-triol]	65	
CCOc1ccc(Cc2cc([C@@H]3O[C@H](CSc4ccc(NC(C)=O)cc4)[C@@H](O)[C@H](O)[C@H]3O)ccc2Cl)cc1 [Example 61, N-(4-{(2S,3S,4R,6R,6S)-6-[4-Chloro-3-(4-ethoxy-benzyl)-phenyl]-3,4,6-trihydroxy-tetrahydro-pyran-2-ylmethylsulfanyl}-phenyl)-acetamide]	28	
CCOc1ccc(Cc2cc([C@@H]3O[C@H](COc4cccc(C(=O)NC)c4)[C@@H](O)[C@H](O)[C@H]3O)ccc2Cl)cc1 [Example 83, 3-{(2R,3S,4R,5R,6S)-6-[4-Chloro-3-(4-ethoxy-benzyl)-phenyl]-3,4,5-trihydroxy-tetrahydro-pyran-2-ylmethoxy}-N-methyl-benzamide]	72	
CCOc1ccc(Cc2cc([C@@H]3O[C@H](COc4cccc(C(=O)N5CCCC5)c4)[C@@H](O)[C@H](O)[C@H]3O)ccc2Cl)cc1 [Example 84, (3-{(2R,3S,4R,5R,6S)-6-[4-Chloro-3-(4-ethoxy-benzyl)-phenyl]-3,4,5-trihydroxy-tetrahydro-pyran-2-ylmethoxy}-phenyl)-pyrrolidin-1-yl-methanone]	11	
CCOc1ccc(Cc2cc([C@@H]3O[C@H](COc4cccc(C(=O)N5CCC5)c4)[C@@H](O)[C@H](O)[C@H]3O)ccc2Cl)cc1 [Example 85]	9	

The remaining lines, values ahead:

IC50 [1] [nM]	IC50 (human SGLT1) [nM]	Compound
36		CCOc1ccc(Cc2cc([C@@H]3O[C@H](CSc4ccccc4CO)[C@@H](O)[C@H](O)[C@H]3O)ccc2Cl)cc1 [Example 23, (2S,3R,4R,5S,6S)-2-[4-Chloro-3-(4-ethoxy-benzyl)-phenyl]-6-(2-hydroxymethyl-phenylsulfanylmethyl)-tetrahydro-pyran-3,4,5-triol]
57		CCOc1ccc(Cc2cc([C@@H]3O[C@H](CSc4ccccc4C(N)=O)[C@@H](O)[C@H](O)[C@H]3O)ccc2Cl)cc1 [Example 24, 2-{(2S,3S,4R,5R,6S)-6-[4-Chloro-3-(4-ethoxy-benzyl)-phenyl]-3,4,5-trihydroxy-tetrahydro-pyran-2-ylmethylsulfanyl}-benzamide]
7	< 50	CCOc1ccc(Cc2cc([C@@H]3O[C@H](CSc4cc(NC(C)=O)ccc4F)[C@@H](O)[C@H](O)[C@H]3O)ccc2Cl)cc1 [Example 25, N-(3-{(2S,3S,4R,5R,6S)-6-[4-Chloro-3-(4-ethoxy-benzyl)-phenyl]-3,4,5-trihydroxy-tetrahydro-pyran-2-ylmethylsulfanyl}-4-fluoro-phenyl)-acetamide]
12	< 50	CCOc1ccc(Cc2cc([C@@H]3O[C@H](CSc4cc(C(N)=O)ccc4F)[C@@H](O)[C@H](O)[C@H]3O)ccc2Cl)cc1 [Example 26]
6	< 50	CCOc1ccc(Cc2cc([C@@H]3O[C@H](CSc4cc(C(=O)NC)ccc4F)[C@@H](O)[C@H](O)[C@H]3O)ccc2Cl)cc1 [Example 27, 3-{(2S,3S,4R,5R,6S)-6-[4-Chloro-3-(4-ethoxy-benzyl)-phenyl]-3,4,5-trihydroxy-tetrahydro-pyran-2-ylmethylsulfanyl}-4-fluoro-N-methyl-benzamide]
6		CCOc1ccc(Cc2cc([C@@H]3O[C@H](CSc4cc(C(=O)N5CCCC5)ccc4F)[C@@H](O)[C@H](O)[C@H]3O)ccc2Cl)cc1 [Example 36, (3-{(2S,3S,4R,6R,6S)-6-[4-Chloro-3-(4-ethoxy-benzyl)-phenyl]-3,4,5-trihydroxy-tetrahydro-pyran-2-ylmethylsulfanyl}-4-fluoro-phenyl)-pyrrolidin-1-yl-methanone]
9		CCOc1ccc(Cc2cc([C@@H]3O[C@H](CSc4cccc(NC(=O)CC)c4)[C@@H](O)[C@H](O)[C@H]3O)ccc2Cl)cc1 [Example 67, N-(3-{(2S,3S,4R,5R,6S)-6-[4-Chloro-3-(4-ethoxy-benzyl)-phenyl]-3,4,5-trihydroxy-tetrahydro-pyran-2-ylmethylsulfanyl}-phenyl)-propionamide]
28		CCOc1ccc(Cc2cc([C@@H]3O[C@H](CSc4cccc(NC(=O)OC)c4)[C@@H](O)[C@H](O)[C@H]3O)ccc2Cl)cc1 [Example 69]
61		CCOc1ccc(Cc2cc([C@@H]3O[C@H](CSc4cccc(CO)c4)[C@@H](O)[C@H](O)[C@H]3O)ccc2Cl)cc1 [Example 77, (2S,3R,4R,5S,6S)-2-[4-Chloro-3-(4-ethoxy-benzyl)-phenyl]-6-(3-hydroxymethyl-phenylsulfanylmethyl)-tetrahydro-pyran-3,4,5-triol]
